Experimental data: patent US20140328893A1, “NUTLIN COMPOUNDS FOR USE IN THE TREATMENT OF PULMONARY HYPERTENSION” (Institut National de la Sante et de la Recherche Medicale …, priority 2011, published 2014)

Assays:
[1] = tested on: p53-deficient (p53−/−) mice; assay: Chronic hypoxia-induced pulmonary hypertension in p53-deficient mice; type: in vivo
Source text: Normoxic mice were kept in the same room, with the same light-dark cycle.

[2] = tested on: cultured human PA-SMC; assay: PA-SMC proliferation (MTT); type: cell-based; settings: 2.5-10 μM, 48 hours
Protocol: (§1) Cultured PA-SMCs were collected from pulmonary arteries of patients undergoing lung surgery for localized lung tumours. To determine the phenotypic characteristics of cultured PA-SMCs, the cells from each culture were assessed for expression of musclespecific contractile and cytoskeletal proteins, including smooth muscle cell α-actin and desmin.
To assess the effects of nutlin-3 on PASMC proliferation, cells were exposed to increasing concentration of nutlin-3a (2.5-10 μM) or vehicle in serum-free medium or in presence of PDGF-BB (50 ng/ml). After 48 hours, tetrazolium salt (MTT), (Sigma, Lyon, France) was added to each well (0.2 mg/ml). After 4 hours incubation at 37° C., the culture medium was removed and formazan crystals were solubilized by adding 500 μL of DMSO. Tetrazolium salt reduction to formazan within the cells was quantified by spectrophotometry at 520 nm.

[3] = tested on: p53 pathway; assay: Lung p53 and p21 levels in SM22-5-HTT+ mice (Western blotting, RT-qPCR); type: in vivo
Protocol: (§2) Nutlin-3 was administered at the increasing dosages of 6, 12, and 25 mg/Kg/day by intraperitoneal injection. At completion of treatment, lungs were removed and prepared for histological or Western blot analyses.
(§3) p53, p16, p21, caspase and MDM2 proteins were detected and measured in lung tissues and/or cells using Western blotting. Levels of p21, Bax, and PUMA mRNA in lung tissues and/or cells were determined using RT-qPCR. Total mRNA was extracted from lung tissues and PA-SMC using RNeasy Mini Kit (Qiagen, ZA Courtaboeuf, France). First-strand cDNA was synthesized in reversed transcribed samples, as follows: 1 μg total RNA isolated from cells or lung tissues, 200 U/μL SuperScrip II RT (Invitrogen, Life Technologies, Cergy-Pontoise, France), 100 ng Random primers and 10 mM mixed dNTP. Quantitative PCR was performed in a 7900HT Real-Time PCR system (Applied Biosystems, ZA Courtaboeuf, France), using SYBR green Mix from Invitrogen.

[4] = tested on: p53 pathway; assay: Lung p53 and p21 levels in hypoxic mice (Western blotting, RT-qPCR); type: in vivo
Protocol: as §2, §3

[5] = tested on: SM22-5-HTT+ mice; assay: Pulmonary hypertension in SM22-5-HTT+ mice; type: in vivo; settings: 12 mg/Kg/day
Protocol: (§4) Wild-type mice aged 15-20 weeks were randomly allocated to room air or chronic hypoxia. Transgenic animals expressing the human 5-HTT gene in smooth muscle (SM22-5-HTT+ mice) were produced as previously described. All animal care and procedures were in accordance with institutional guidelines.
as §2
Mice exposed previously to hypoxia or room air or SM22-5-HTT+ mice were anaesthetized. After incision of the abdomen, a 26-gauge needle connected to a pressure transducer was inserted into the right ventricle through the diaphragm, and right ventricular systolic pressure (RVSP) was recorded immediately. Then, the thorax was opened and the lungs and heart were removed. […] The percentage of pulmonary vessels in each muscularization category was determined by dividing the number of vessels in that category by the total number counted in the relevant group of animals. For fully muscular vessels, video images were obtained and arterial diameters were measured using computerized image-analysis software. Percent wall thickness was then calculated as the diameter of the external elastic lamina minus the diameter of the internal lamina divided by the diameter of the external elastic lamina.

[6] = tested on: p53 pathway; assay: p53 pathway activation in cultured human PA-SMCs (Western blotting, RT-qPCR); type: cell-based; settings: 2.5 to 10 μM
Protocol: as §1
(§5) To assess the effects of nutlin on cell senescence, the percentage of beta-galactosidase (β-gap)-positive cells was measured after 48 hours incubation with nutlin-3 in presence or absence of vehicle or PDGF. The amounts of p53, p16, and p21 proteins or mRNA were determined by western blotting o by RT-qPCR, respectively.
as §3

[7] = tested on: cultured human PA-SMC; assay: PA-SMC senescence (beta-galactosidase-positive cells); type: cell-based; settings: 48 hours incubation
Protocol: as §1, §5

[8] = tested on: mice exposed to chronic hypoxia; assay: Pulmonary hypertension in mice exposed to chronic hypoxia; type: in vivo
Protocol: as §4, §2
Mice were exposed to chronic hypoxia (10% O2) in a ventilated chamber (Biospherix, N.Y., USA). The hypoxic environment was established by flushing the chamber with a mixture of room air and nitrogen, and the gas was recirculated. The chamber environment was monitored using an oxygen analyzer. Carbon dioxide was removed by soda lime granules, and excess humidity was prevented by cooling of the recirculation circuit. Normoxic mice were kept in the same room, with the same light-dark cycle.
Mice exposed previously to hypoxia or room air or SM22-5-HTT+ mice were anaesthetized. After incision of the abdomen, a 26-gauge needle connected to a pressure transducer was inserted into the right ventricle through the diaphragm, and right ventricular systolic pressure (RVSP) was recorded immediately. Then, the thorax was opened and the lungs and heart were removed. The right ventricle (RV) was dissected from the left ventricle plus septum (LV+S), and these dissected samples were weighed for determination of Fulton's index (RV/LV+S). The lungs were fixed by intratracheal infusion of 4% aqueous buffered formalin. A midsagittal slice of the right lung was processed for paraffin embedding. Sections 5 μm in thickness were cut and stained with hematoxylin-phloxine-saffron for examination by light microscopy. In each mouse, a total of 20 to 30 intraacinar vessels accompanying either alveolar ducts or alveoli were examined by an observer who was blinded to the treatment or genotype. Each vessel was categorized as nonmuscular (no evidence of vessel wall muscularization), partially muscular (smooth muscle cells [SMCs] identifiable in less than three-fourths of the vessel circumference), or fully muscular (SMCs in more than three-fourths of the vessel circumference). The percentage of pulmonary vessels in each muscularization category was determined by dividing the number of vessels in that category by the total number counted in the relevant group of animals. For fully muscular vessels, video images were obtained and arterial diameters were measured using computerized image-analysis software. Percent wall thickness was then calculated as the diameter of the external elastic lamina minus the diameter of the internal lamina divided by the diameter of the external elastic lamina.

[9] = chronic hypoxia mice, 6 to 25 mg/Kg/day intraperitoneally
[10] = mice, associated with protective effects

SMILES | pulmonary hypertension induced by chronic hypoxia in p53-deficient mice [1] | cell proliferation stimulated by 50 ng/ml PDGF ([2]; 50 ng/ml PDGF) | cell proliferation stimulated by 0.2% FCS ([2]; 0.2% FCS) | lung p21 mRNA [3] | lung p21 protein [3] | lung p53 protein [3] | lung p21 mRNA [4] | lung p21 protein [4] | lung p53 protein [4] | PH in SM22-5-HTT+ mice [5] | mRNA level of p53 target gene Bax [6] | mRNA level of p53 target gene PUMA [6] | mRNA level of p53 target gene p21 [6] | p53 protein [6] | percentage of beta-galactosidase stained cells (senescent cells) [7] | distal pulmonary artery muscularization [8, 9] | pulmonary hypertension [8, 9] | right ventricular hypertrophy [8, 9] | PA-SMC proliferation [8, 10] | apoptosis [8, 10]
COc1ccc(C2=N[C@@H](c3ccc(Cl)cc3)[C@@H](c3ccc(Cl)cc3)N2C(=O)N2CCNC(=O)C2)c(OC(C)C)c1 [nutlin-3a] | remained unaffected |  |  |  |  |  |  |  |  |  |  |  |  |  |  |  |  |  |  | 
COc1ccc(C2=NC(c3ccc(Cl)cc3)C(c3ccc(Cl)cc3)N2C(=O)N2CCNC(=O)C2)c(OC(C)C)c1 (racemic) [Nutlin-3, (±)-4-[4,5-Bis(4-chlorophenyl)-2-(2-isopropoxy-4-methoxy-phenyl)-4,5-dihydro-imidazole-1-carbonyl]-piperazin-2-one] |  | dose-dependent inhibition | dose-dependent inhibition | marked increases | marked increases | marked increases | marked increases | marked increases | marked increases | partially reversed | increased | increased | increased | increased | increase | prevented | prevented | prevented | decrease | increase
